# Reference: US5561126A, “4-oxa-1-azabicyclo [3,2,0] heptan-7-one derivatives as antitumor agents” (Taiho Pharmaceutical Co., Ltd., priority 1992, dated 1996)
# Columns and labels:
# KB cells = experiment: In Vitro KB Cell Cytotoxicity Assay (crystal violet); format: cell-based; conditions: Homo sapiens, 72 h, read-out: Cytotoxicity TD50 KB
# Procedure: KB cells were cultivated in Eagles minimum essential medium supplemented with 10% calf serum and incubated at 37° C. in a humidified 5% CO2 atmosphere to prepare a cell stock. Cells were counted using a neubauer hemocytometer and seeded in 96 well plates at 100 μl of 3×10^4 cells/ml and cultured for one day. […] Control wells were identical except that test compound was absent. These were cultured for three days. […] Then stained with 100 μl of 0.05% crystal violet for 15 minutes, washed with water and dried. The wells were eluted with 100 μl of 0.05M NaH2 PO4 /ethanol (1:1 v/v) and read at OD540 on a multiscan spectrophotometer. TD50 values were calculated using the following formula.
# L1210 cells = experiment: cells; format: cell-based; conditions: Mus musculus, L1210, 72 h, read-out: Cytotoxicity TD50 L1210
# Procedure: In vitro L1210 cell cytotoxicity assay was done by the method of microculture tetrazolium assay (Alley et al., Cancer Research, 48, 589-601 (1988)). L1210 cells were cultivated in RPMI 1640 medium supplemented with 10% fetal calf serum and […] of 2-mercaptoethanol at 37° C. in humidified 5% CO2 atmosphere to prepare a cell stock. Cells were counted using neubauer hemocytometer and seed in 96 well plates at 100 μl of 0.5×10^4 cells per ml. The test compounds were diluted and 100 μl of the solution was added in triplicate wells to give the final concentration of 10, 5, 1, 0.5 and 0.1 μg/ml. Control wells were identical except that the test compound was absent. These were cultured for three days. Results were assayed using the microculture tetrazolium assay briefly. 50 μl of MTT formazoan working solution (1:5 v/v in culture medium) was added to each well and cultures were incubated at 37° C. for 4 hrs. Culture plates were centrifuged at low speed for 5 minutes. All but 10-20 μl of culture medium supernatant was removed by slow aspiration and replaced by 50 μl of DMSO. The formazoan was dissolved by shaking on a mechanical shaker and read at OD540 on a multiscan spectrophotometer. TD50 values were calculated using the formula: [formula] to give interpolative values between two dilutions.
# Sarcoma 180 = experiment: In Vivo Antitumor Activity Against Sarcoma 180; conditions: for Mortality in 12 days: i.p., days 1, 5 and 9
# Procedure: Sarcoma 180, 5×10^6 cells were inoculated by S.C. to male ICR mice (6 weeks old) on day 0. Drugs were administered on days 1, 5 and 9. Mice were killed and tumor weight was measured on day 12 after transplantation. The percentage inhibition of tumor growth was calculated from the mean tumor weight of the treated group compared with that of the control group. Number of mice used in each group was between 6 to 10.
# [1] = Mus musculus, Sarcoma-180, ip, 288 h, read-out: % Inhibition of tumor growth
smiles,measurement,setting,value
"O=COC[C@H]1CN2C(=O)C[C@@H]2O1 (racemic) [compound 3, (3RS, 5SR)-3-Formyloxymethyl-4-oxa-1-azabicyclo[3,2,0]heptan-7-one]",CC50,KB cells,0.04 µg/mL
same,CC50,L1210 cells,0.22 µg/mL
same,Mortality in 12 days,Sarcoma 180; 3.13 mg/kg/day,0/7
same,Mortality in 12 days,Sarcoma 180; 6.25 mg/kg/day,0/7
same,inhibition in vivo at 3.13 mg/kg,Sarcoma 180; [1],27.6%
same,inhibition in vivo at 6.25 mg/kg,Sarcoma 180; [1],55.3%
"CC(=O)OC[C@H]1CN2C(=O)C[C@@H]2O1 (racemic) [compound 4, (3RS, 5SR)-3-Acetoxymethyl-4-oxa-1-azabicyclo[3,2,0]heptan-7-one]",CC50,KB cells,0.4 µg/mL
same,CC50,L1210 cells,0.4 µg/mL
same,Mortality in 12 days,Sarcoma 180; 6.25 mg/kg/day,0/7
same,Mortality in 12 days,Sarcoma 180; 12.5 mg/kg/day,0/7
same,inhibition in vivo at 6.25 mg/kg,Sarcoma 180; [1],64%
same,inhibition in vivo at 12.5 mg/kg,Sarcoma 180; [1],70.7%
"CCCCCC(=O)OC[C@H]1CN2C(=O)C[C@@H]2O1 (racemic) [compound 6, (3RS, 5SR)-3-Hexanoyloxymethyl-4-oxa-1-azabicyclo[3,2,0]heptan-7-one]",CC50,KB cells,0.3 µg/mL
same,CC50,L1210 cells,0.7 µg/mL
same,Mortality in 12 days,Sarcoma 180; 13 mg/kg/day,0/6
same,Mortality in 12 days,Sarcoma 180; 25 mg/kg/day,0/6
same,Mortality in 12 days,Sarcoma 180; 50 mg/kg/day,0/6
same,inhibition in vivo at 13 mg/kg,Sarcoma 180; [1],36.4%
same,inhibition in vivo at 25 mg/kg,Sarcoma 180; [1],61.4%
same,inhibition in vivo at 50 mg/kg,Sarcoma 180; [1],78%
"CCCCCCCCCC(=O)OC[C@H]1CN2C(=O)C[C@@H]2O1 (racemic) [compound 8, (3RS, 5SR)-3-Decanoyloxymethyl-4-oxa-1-azabicyclo[3,2,0]heptan-7-one]",CC50,KB cells,0.3 µg/mL
same,CC50,L1210 cells,0.37 µg/mL
"O=C(CCl)OC[C@H]1CN2C(=O)C[C@@H]2O1 (racemic) [compound 13, (3RS, 5SR)-3-Chloroacetoxymethyl-4-oxa-1-azabicyclo[3,2,0]heptan-7-one]",CC50,KB cells,0.5 µg/mL
same,CC50,L1210 cells,0.28 µg/mL
"C#CC(=O)OC[C@H]1CN2C(=O)C[C@@H]2O1 (racemic) [compound 16, (3RS, 5SR)-3-Propynoyloxymethyl-4-oxa-1-azabicyclo[3,2,0]heptan-7-one]",CC50,KB cells,0.07 µg/mL
same,CC50,L1210 cells,0.04 µg/mL
same,Mortality in 12 days,Sarcoma 180; 1.56 mg/kg/day,0/7
same,Mortality in 12 days,Sarcoma 180; 3.13 mg/kg/day,0/7
same,inhibition in vivo at 1.56 mg/kg,Sarcoma 180; [1],45.9%
same,inhibition in vivo at 3.13 mg/kg,Sarcoma 180; [1],53%
"O=C1C[C@@H]2O[C@@H](C[S+]([O-])Cc3ccccc3)CN12 (mixture of isomers) [compound 42, (3RS,5SR)-3-Benzylsulfinylmethyl-4-oxa-1-azabicyclo[3,2,0]heptan-7-one]",CC50,KB cells,0.1 µg/mL
same,CC50,L1210 cells,0.3 µg/mL
same,Mortality in 12 days,Sarcoma 180; 50 mg/kg/day,0/7
same,inhibition in vivo at 50 mg/kg,Sarcoma 180; [1],64%
"O=C1C[C@@H]2O[C@@H](C[S+]([O-])c3ccccc3)CN12 (mixture of isomers) [compound 45, (3RS, 5SR)-3-Phenylsulfinylmethyl-4-oxa-1-azabicyclo [3,2,0]heptan-7-one]",CC50,KB cells,0.3 µg/mL
same,CC50,L1210 cells,0.26 µg/mL
"CC=CC=CC(=O)OC[C@H]1CN2C(=O)C[C@@H]2O1 (relative stereo) [compound 14, (3RS, 5SR)-3-(2,4-Hexadienoyloxyymethyl)-4-oxa-1-azabicyclo [3,2,0]heptan-7-one]",CC50,KB cells,0.3 µg/mL
same,CC50,L1210 cells,0.65 µg/mL
CCC=CCC=CCC=CCCCCCCCC(=O)OC[C@H]1CN2C(=O)C[C@@H]2O1 (relative stereo) [compound 15],CC50,KB cells,0.41 µg/mL
same,CC50,L1210 cells,0.5 µg/mL
"O=C1C[C@@H]2O[C@@H](CO)CN12 [compound 40, (3R,5S)-3-Hydroxymethyl-4-oxa-1-azabicyclo[3,2,0]heptan-7-one]",CC50,KB cells,0.03 µg/mL
same,CC50,L1210 cells,0.027 µg/mL
same,Mortality in 12 days,Sarcoma 180; 0.94 mg/kg/day,0/7
same,Mortality in 12 days,Sarcoma 180; 1.88 mg/kg/day,0/7
same,Mortality in 12 days,Sarcoma 180; 3.75 mg/kg/day,0/7
same,Mortality in 12 days,Sarcoma 180; 7.5 mg/kg/day,0/7
same,inhibition in vivo at 0.94 mg/kg,Sarcoma 180; [1],56.1%
same,inhibition in vivo at 1.88 mg/kg,Sarcoma 180; [1],63.7%
same,inhibition in vivo at 3.75 mg/kg,Sarcoma 180; [1],69.1%
same,inhibition in vivo at 7.5 mg/kg,Sarcoma 180; [1],77.4%
